The test system of one assay is primary human T-cells. Put plainly: T-cell proliferation assay (CellTiter-Glo). It is filed as cell-based. The settings on record: CD3 condition; for Emax: read-out: Emax proliferation (% activation); for EC50: proliferation after 5 days, CellTiter-Glo, read-out: Tcell Proliferation CD3 EC50. On the procedure:
Expanded primary human T-cells are thawed and cultured in RPMI 1640 (Gibco, #61870-010)+5% human serum (HS, Sigma, #H3667)+1 mM Sodium Pyruvate (Gibco, #11360-039)+50 μM 2-mercaptoethanol (Gibco, #31350-010) and 1× Pen-Strep (Life Technologies, #15140122) medium at density of 2 Mio/ml for 3 hours in 5% CO2, 37° C. and 95% humidity. For coating of plates, PBS++ only or PBS++ with CD3 antibody (concentration depending on donor and determined by CD3 titrations) is added 100 μl/well to Poly-D Lysine coated 96-well plates. Plates are sealed and incubated at room temperature for 3 hours on a table-top rocking platform. After incubation, plates are washed once with PBS−− and filled with 40 μl/well culture medium only. Compounds are then added (see next section) to medium only plates. After 3 hours of culturing the T-cells, cells are filtered through a cell strainer (Miltenyi Biotech, #130-041-407), counted again and concentration is adjusted to 1.25 Mio/ml.
Cells are then seeded 80 μl/well to the 40 µl/well including dispensed compounds according to plate layout. By adding cells, compounds are further diluted 1:3, and resulting in 100k cells/120 µl/well. After 48 hours 40 μl of supernatant is collected carefully from the top while not disturbing the cells. Cells are assessed for proliferation 5 days later by measuring […] using CellTiterGlo (Promega).
Compounds were added in a 5 or 6 pt dose response with the Tecan D300e Digital Dispenser, all conditions 3 times more concentrated than the end-concentration, since cells are added afterwards (80p1 cells to 40p1 prepared medium with treatment). The DR was starting at 20 μM or 10 μM final top concentration and a dilution factor of 3.333. The positive control was the reference compound A1 that was added in a dose response as well, additionally to 3 wells of only 20 μM representing the positive stimulator control. All wells were normalized with DMSO to a final concentration of 0.6% (0.2% end-concentration).
After 5 days, for detection of ATP which is directly proportional to the number of cells present per well, the CellTiter-Glo® 2.0 Reagent is used. After visual control for toxicity or precipitations of the tested compounds, the plates are equilibrated to room temperature for 45 minutes. CellTiter-Glo® 2.0 Reagent is equilibrated to room temperature as well. After equilibration, an equal amount of CellTiter-Glo reagent is added to the cells (80 µl/well) with an electronic multichannel pipette. Plates are placed on a rocking platform for 15 minutes at room temperature. After incubation, the bottom of the plates is sealed with backing tape. Luminescence is measured with PHERAstar FSX (interval time 0.5 sec, gain 3000, focal height 15 mm) and exported as CSV file for analysis in Genedata screener.
Calculations and Data Reporting CD3 and PBS plates were analysed separately in Genedata Screener using Roche Normalization PCT_POS_CTRL with DMSO set as Neutral Control and 20 μM of the reference compound A1 set as Stimulator Control/100%.
For CD3 conditions EC50 and Emax of the fitted sigmoidal curve were reported. If no curve could be fitted, the EC50 was reported as blank field and the Emax was based on individual data points. […] Compounds which activate unstimulated cells (see IL2 measurements) or compounds which negatively affected viability were flagged.
For orientation: ATP-based viability assays read luminescence as a measure of living cells.

In a further assay the target is DGKzeta (Homo sapiens, UniProt Q13574). Description: In vitro DGK inhibition assay (ADP-Glo, liposomes), DGKzeta. Further details: hDGKzeta(1-928)-N-His; His (N); made in house; host or cells: Sf21 insect cells (baculovirus). The settings on record: 2 nM DGK ζ, 50 μM ATP, 125 uM DLG in liposomes, 1 hour reaction. It is filed as biochemical. The method, then:
DGK α and ζ kinases use ATP to phosphorylate the substrate 1,2-dilauroyl-sn-glycerol (DLG, incorporated in the liposomes). ATP is converted to ADP as a result of this enzymatic reaction. After the kinase reaction, an ATP-depletion reagent is added to terminate the kinase reaction and deplete any remaining ATP, leaving only ADP. Second, a detection reagent is added to simultaneously convert ADP to ATP and allow the newly synthesized ATP to be converted to light using a coupled luciferase/luciferin reaction.
Purification of both enzymes was performed as previously described by Takahashi et al., PeerJ, 2018 (Takahashi, D.; Sakane, F. Expression and purification of human diacylglycerol kinase alpha from baculovirus-infected insect cells for structural studies. PeerJ 2018, 6, No. e5449).
A concentrated liposome solution was prepared in assay buffer without DTT and BSA: 2 mM of DLG in 21 mM of total liposome (2 mM DLG/8 mM PS/11 mM PC). The reaction mixtures contain the assay buffer with a final DLG concentration of 125 uM ATP concentrations of 25 μM (for DGKA assay) or 50 μM (for DGKZ assay). The reactions were started by addition of DGK a and (kinases at 4 nM and 2 nM final concentrations, respectively. After 1 hour reaction, the amount of ADP formed was detected with the ADP-Glo kinase assay (Promega) according to the manufacturer instructions. Compounds were added in 11-points dose response, starting at […], 1:3 dilutions, with a final DMSO concentration of 2%. The multidrop combi was used as a liquid handler and luminescence was read with 0.5 s by the envision reader (PE).
(In general: ADP-Glo first removes unused ATP, then detects ADP through luciferase.)

Where [1] appears, read: Homo sapiens, T-cell, 120 h, 5 days, 20 μM reference compound A1 = 100%.

Read-outs that look alike come from different tables or passages of the source.

The IC50 is the concentration at which inhibition is half-maximal. Low values mean greater potency in that assay, high ones weaker potency in that assay.

Chain of DGKzeta (Q13574 whole entry): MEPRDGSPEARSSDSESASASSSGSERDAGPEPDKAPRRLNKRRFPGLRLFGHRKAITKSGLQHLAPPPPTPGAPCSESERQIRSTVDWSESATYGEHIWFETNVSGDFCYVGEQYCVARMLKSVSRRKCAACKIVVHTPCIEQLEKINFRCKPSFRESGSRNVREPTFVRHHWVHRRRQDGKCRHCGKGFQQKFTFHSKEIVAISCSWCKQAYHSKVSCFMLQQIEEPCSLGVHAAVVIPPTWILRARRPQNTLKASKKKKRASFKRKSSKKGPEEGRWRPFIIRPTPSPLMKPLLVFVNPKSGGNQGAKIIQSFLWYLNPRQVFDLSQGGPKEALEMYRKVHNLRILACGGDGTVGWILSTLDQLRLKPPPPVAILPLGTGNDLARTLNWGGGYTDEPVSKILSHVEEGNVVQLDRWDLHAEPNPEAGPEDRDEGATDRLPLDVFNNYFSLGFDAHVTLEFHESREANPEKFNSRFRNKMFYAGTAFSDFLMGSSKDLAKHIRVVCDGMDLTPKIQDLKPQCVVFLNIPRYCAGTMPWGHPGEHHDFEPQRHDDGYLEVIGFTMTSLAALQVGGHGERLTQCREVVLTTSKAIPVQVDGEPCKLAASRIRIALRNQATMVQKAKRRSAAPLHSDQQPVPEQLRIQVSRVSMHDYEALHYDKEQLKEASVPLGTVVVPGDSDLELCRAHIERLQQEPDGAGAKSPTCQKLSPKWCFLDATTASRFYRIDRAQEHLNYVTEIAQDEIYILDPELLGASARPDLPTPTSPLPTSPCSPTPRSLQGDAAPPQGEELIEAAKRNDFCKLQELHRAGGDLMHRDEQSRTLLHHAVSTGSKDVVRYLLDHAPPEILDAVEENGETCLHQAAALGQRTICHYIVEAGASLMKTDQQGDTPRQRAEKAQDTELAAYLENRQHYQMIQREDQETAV

Take `CC(C)(c1nnc(-c2ccc3c(c2)N(Cc2ccc(-c4ccc(F)cn4)cc2)C(=O)[C@@H](N)CS3(=O)=O)o1)S(C)(=O)=O` [Example 9, (3R)-3-amino-5-[[4-(5-fluoro-2-pyridyl)phenyl]methyl]-7-[5-(1-methyl-1-methylsulfonyl-ethyl)-1,3,4-oxadiazol-2-yl]-1,1-dioxo-2,3-dihydro-1λ6,5-benzothiazepin-4-one]: in the assay on primary human T-cells (setting [1]), the Emax was 82%. Besides, the EC50 in the assay on primary human T-cells (Homo sapiens, T-cell, 120 h) was found to be 2.7 µM. In addition, the concentration for half-maximal inhibition (IC50) at DGKzeta was 1.32 µM.
For the compound `CS(=O)(=O)C1(c2nnc(-c3ccc4c(c3)N(Cc3ccc(Oc5ccccc5)cc3)C(=O)[C@@H](N)CS4(=O)=O)o2)CC1` [Example 66, (3R)-3-amino-7-[5-(1-methylsulfonylcyclopropyl)-1,3,4-oxadiazol-2-yl]-1,1-dioxo-5-[(4-phenoxyphenyl)methyl]-2,3-dihydro-1λ6,5-benzothiazepin-4-one], the Emax in the assay with primary human T-cells (setting [1]) came to 144%. For the same compound, the EC50 in the assay with primary human T-cells (Homo sapiens, T-cell, 120 h) was 2.17 µM. At DGKzeta, this compound had a 50% inhibitory concentration (IC50) of 1.16 µM.
Consider `CC(C)(c1nnc(-c2ccc3c(c2)N(Cc2ccc(OC(F)(F)F)cc2)C(=O)[C@@H](N)CS3(=O)=O)o1)S(C)(=O)=O` [Example 64, (3R)-3-amino-7-[5-(1-methyl-1-methylsulfonyl-ethyl)-1,3,4-oxadiazol-2-yl]-1,1-dioxo-5-[[4-(trifluoromethoxy)phenyl]methyl]-2,3-dihydro-126,5-benzothiazepin-4-one], for which the Emax in the assay with primary human T-cells (setting [1]) was 98%. In the assay with primary human T-cells (Homo sapiens, T-cell, 120 h), the EC50 was determined as 6.17 µM. The concentration for half-maximal inhibition (IC50) against DGKzeta turned out to be 1.92 µM.
On to `CC(C)(c1nnc(-c2ccc3c(c2)N(Cc2ccc(-c4ccc(C(F)(F)F)cn4)cc2)C(=O)[C@@H](N)CS3(=O)=O)o1)S(C)(=O)=O` [Example 10], for which, in the assay with primary human T-cells (setting [1]), the Emax stood at 145%. For the same compound, the EC50 in the assay on primary human T-cells (Homo sapiens, T-cell, 120 h) is 1.16 µM. The IC50 at DGKzeta came to 1.75 µM.
The matching figures for `CC(C)(c1nnc(-c2ccc3c(c2)N(Cc2ccc(OCCC(F)(F)F)cc2)C(=O)[C@@H](N)CS3(=O)=O)o1)S(C)(=O)=O` [Example 23, (3R)-3-amino-7-[5-(1-methyl-1-methylsulfonyl-ethyl)-1,3,4-oxadiazol-2-yl]-1,1-dioxo-5-[[4-(3,3,3-trifluoropropoxy)phenyl]methyl]-2,3-dihydro-1λ6,5-benzothiazepin-4-one]: 79%, 4.54 µM and 1.26 µM.
Take `CC(C)(c1nc(-c2cc3c(cc2F)S(=O)(=O)C[C@H](N)C(=O)N3Cc2ccc(Oc3ccccc3)cc2)no1)S(C)(=O)=O` [Example 30, (3R)-3-amino-8-fluoro-7-[5-(1-methyl-1-methylsulfonyl-ethyl)-1,2,4-oxadiazol-3-yl]-1,1-dioxo-5-[(4-phenoxyphenyl)methyl]-2,3-dihydro-1λ6,5-benzothiazepin-4-one]: in the assay on primary human T-cells (setting [1]), the Emax was 225%. In the assay on primary human T-cells (Homo sapiens, T-cell, 120 h), the EC50 was 0.127 µM. Besides, the IC50 against DGKzeta was 0.309 µM.
For `CC(C)(c1nnc(-c2ccc3c(c2)N(Cc2ccc(Oc4cccc(Cl)c4Cl)cc2)C(=O)[C@@H](N)CS3(=O)=O)o1)S(C)(=O)=O` [Example 32, (3R)-3-amino-5-[[4-(2,3-dichlorophenoxy)phenyl]methyl]-7-[5-(1-methyl-1-methylsulfonyl-ethyl)-1,3,4-oxadiazol-2-yl]-1,1-dioxo-2,3-dihydro-1λ6,5-benzothiazepin-4-one] the same measures were 75%, 0.356 µM and 0.893 µM.
Turning to `CC(C)(c1nc(-c2cc3c(cc2F)S(=O)(=O)C[C@H](N)C(=O)N3Cc2ccc(C3CCOCC3)cc2)no1)S(C)(=O)=O` [Example 53, (3R)-3-amino-8-fluoro-7-[5-(1-methyl-1-methylsulfonyl-ethyl)-1,2,4-oxadiazol-3-yl]-1,1-dioxo-5-[(4-tetrahydropyran-4-ylphenyl)methyl]-2,3-dihydro-1λ6,5-benzothiazepin-4-one], in the assay with primary human T-cells (setting [1]), the Emax was 167%. Also, the EC50 in the assay on primary human T-cells (Homo sapiens, T-cell, 120 h) amounted to 3.19 µM.
`CC(C)(c1nc(-c2cc3c(cc2F)[S+]([O-])C[C@H](N)C(=O)N3Cc2ccc(Oc3ccccc3)cc2)no1)S(C)(=O)=O` (stereo partly drawn) [Example 52, (3R)-3-amino-8-fluoro-7-[5-(1-methyl-1-methylsulfonyl-ethyl)-1,2,4-oxadiazol-3-yl]-1-oxo-5-[(4-phenoxyphenyl)methyl]-2,3-dihydro-1λ4,5-benzothiazepin-4-one]: in the assay with primary human T-cells (5 days, 20 μM reference compound A1 = 100%), the “Emax proliferation (% activation)” value is given as 181%. For the same compound, the EC50 with primary human T-cells was determined as 0.978 µM. Moreover, the IC50 against DGKzeta turned out to be 0.419 µM.
For `CC(C)(c1nnc(-c2ccc3c(c2)N(Cc2ccc(Oc4cccc(OC(F)(F)F)c4)cc2)C(=O)[C@@H](N)CS3(=O)=O)o1)S(C)(=O)=O` [Example 40, (3R)-3-amino-7-[5-(1-methyl-1-methylsulfonyl-ethyl)-1,3,4-oxadiazol-2-yl]-1,1-dioxo-5-[[4-[3-(trifluoromethoxy)phenoxy]phenyl]methyl]-2,3-dihydro-126,5-benzothiazepin-4-one], the Emax in the assay with primary human T-cells (setting [1]) amounted to 148%. The EC50 with primary human T-cells (Homo sapiens, T-cell, 120 h) came to 0.903 µM. The compound further had an IC50 on DGKzeta of 0.893 µM.
With `CC(C)(c1nnc(-c2ccc3c(c2)N(Cc2ccc(Oc4cccc(Br)c4)cc2)C(=O)[C@@H](N)CS3(=O)=O)o1)S(C)(=O)=O` [Example 60, (3R)-3-amino-5-[[4-(3-bromophenoxy)phenyl]methyl]-7-[5-(1-methyl-1-methylsulfonyl-ethyl)-1,3,4-oxadiazol-2-yl]-1,1-dioxo-2,3-dihydro-1λ6,5-benzothiazepin-4-one], the Emax with primary human T-cells (setting [1]) came to 119%. In the assay on primary human T-cells (Homo sapiens, T-cell, 120 h), the EC50 was determined as 0.66 µM. The compound also registered an IC50 at DGKzeta of 0.609 µM.
Consider `CC(C)(c1nnc(-c2ccc3c(c2)N(Cc2ccc(OCC(F)(F)F)cc2)C(=O)[C@@H](N)CS3(=O)=O)o1)S(C)(=O)=O` [Example 6, (3R)-3-amino-7-[5-(1-methyl-1-methylsulfonyl-ethyl)-1,3,4-oxadiazol-2-yl]-1,1-dioxo-5-[[4-(2,2,2-trifluoroethoxy)phenyl]methyl]-2,3-dihydro-1λ6,5-benzothiazepin-4-one], for which the Emax with primary human T-cells (setting [1]) amounted to 62%. Further, in the assay on primary human T-cells (Homo sapiens, T-cell, 120 h), the EC50 was 5.56 µM. Moreover, the half-inhibitory concentration (IC50) on DGKzeta was determined as 2.05 µM.
Take `CN(Cc1ccccc1)c1ccc(CN2C(=O)[C@@H](N)CS(=O)(=O)c3ccc(-c4nnc(C(C)(C)S(C)(=O)=O)o4)cc32)cc1` [Example 15, (3R)-3-amino-5-[[4-[benzyl(methyl)amino]phenyl]methyl]-7-[5-(1-methyl-1-methylsulfonyl-ethyl)-1,3,4-oxadiazol-2-yl]-1,1-dioxo-2,3-dihydro-1λ6,5-benzothiazepin-4-one]: the Emax with primary human T-cells (setting [1]) turned out to be 85%. In addition, in the assay with primary human T-cells (Homo sapiens, T-cell, 120 h), the EC50 came out at 2.67 µM. At DGKzeta, this compound had an IC50 of 8.03 µM.
